Measurements from US12157810B1 (priority 2020, dated 2024).

System: cell culture

## poly(alloocimene-b-isobutylene-b-alloocimene) [AIBA]
  cytotoxicity in cell culture studies: non-cytotoxicity
